Tested on: cockroaches
Assay: Biological knockdown of cockroaches on glass plates sprayed with diluted d-phenothrin emulsions I, J and neat d-phenothrin
Type: in vivo
Conditions: 30 mg active pesticide/m^2
Method: Samples of the emulsions I and J and neat d-phenothrin are diluted in water and sprayed onto a glass plates to give a concentration of 30 mg active pesticide/m^2. The samples are tested for biological knockdown of cockroaches for 15 minute and 24 hour exposure on the plates and the effectiveness of the pesticide on the treated plates monitored periodically under light and dark conditions. The results of the tests conducted in daylight are shown in Table 3. and those conducted in the dark are shown Table 4.

[1] = daylight, 7 days after application to plates
[2] = daylight, 14 days after application to plates
[3] = daylight, 21 days after application to plates
[4] = daylight, 49 days after application to plates
[5] = daylight, 63 days after application to plates
[6] = daylight, 91 days after application to plates

CC(C)=CC1C(C(=O)OCc2cccc(Oc3ccccc3)c2)C1(C)C (stereo not drawn) [phenothrin, d-phenothrin]
10%: % Kill after 24 hour exposure (in brackets) [1] | % Kill after 15 minute exposure [3] | % Kill after 15 minute exposure [5]
100%: % Kill after 15 minute exposure (dark, 1 day after application to plates) | % Kill after 15 minute exposure (dark, 7 days after application to plates) | % Kill after 15 minute exposure (dark, 14 days after application to plates) | % Kill after 15 minute exposure (dark, 21 days after application to plates) | % Kill after 15 minute exposure (dark, 49 days after application to plates) | % Kill after 15 minute exposure (dark, 63 days after application to plates) | % Kill after 15 minute exposure (dark, 91 days after application to plates) | % Kill after 15 minute exposure (daylight, 1 day after application to plates)
0%: % Kill after 15 minute exposure [1] | % Kill after 24 hour exposure (in brackets) [3]
40%: % Kill after 24 hour exposure (in brackets) [5]
0 (0) %: % Kill after 15 minute exposure [2] | % Kill after 24 hour exposure (in brackets) [2] | % Kill after 15 minute exposure [6] | % Kill after 24 hour exposure (in brackets) [6]
10 (10) %: % Kill after 15 minute exposure [4] | % Kill after 24 hour exposure (in brackets) [4]
